These results are taken from ChEMBL document CHEMBL4425184, “C15-methoxyphenylated 18-deoxy-herbimycin A analogues, their in vitro anticancer activity and heat shock protein 90 binding affinity” (Bioorg Med Chem Lett, 2016).

The subject of one assay is BGC-823. Nature of the assay: Antiproliferative activity against human BGC823 assessed as reduction in cell viability measured after 96 hrs by MTT assay. The format is functional, cell-based. Particulars: BGC-823, 96 h.
Regarding `COc1ccc([C@H]2c3cccc(c3O)NC(=O)/C(C)=C/C=C\[C@H](OC)[C@@H](OC(N)=O)/C(C)=C/[C@H](C)[C@@H](O)[C@@H](OC)C[C@@H]2C)cc1`, the IC50 was 630 nM.

Consider `COc1ccc([C@H]2c3cccc(c3O)NC(=O)/C(C)=C/C=C\[C@H](OC)[C@@H](OC(N)=O)/C(C)=C/[C@H](C)[C@@H](OC)[C@@H](OC)C[C@@H]2C)cc1`, for which the 50% inhibitory concentration (IC50) turned out to be 6470 nM.

The test system of another assay is A2780. Nature of the assay: Antiproliferative activity against human A2780 assessed as reduction in cell viability measured after 96 hrs by MTT assay. The format is functional, cell-based. Particulars: A2780, 96 h.
With `COc1ccc([C@H]2c3cccc(c3O)NC(=O)/C(C)=C/C=C\[C@H](OC)[C@@H](OC(N)=O)/C(C)=C/[C@H](C)[C@@H](O)[C@@H](OC)C[C@@H]2C)cc1`, the half-maximal inhibitory concentration (IC50) worked out at 470 nM.

On to `COc1ccc([C@H]2c3cccc(c3O)NC(=O)/C(C)=C/C=C\[C@H](OC)[C@@H](OC(N)=O)/C(C)=C/[C@H](C)[C@@H](OC)[C@@H](OC)C[C@@H]2C)cc1`, for which the IC50 was found to be 2380 nM.

In the next assay the test system is SW1990. Kind of assay: Antiproliferative activity against human SW1990 assessed as reduction in cell viability measured after 96 hrs by MTT assay. As to conditions: SW1990, 96 h. The format is functional, cell-based.
`COc1ccc([C@H]2c3cccc(c3O)NC(=O)/C(C)=C/C=C\[C@H](OC)[C@@H](OC(N)=O)/C(C)=C/[C@H](C)[C@@H](O)[C@@H](OC)C[C@@H]2C)cc1`: the half-inhibitory concentration (IC50) was 800 nM.

In the case of `COc1ccc([C@H]2c3cccc(c3O)NC(=O)/C(C)=C/C=C\[C@H](OC)[C@@H](OC(N)=O)/C(C)=C/[C@H](C)[C@@H](OC)[C@@H](OC)C[C@@H]2C)cc1`, the IC50 amounted to 3370 nM.

The next assay has as its target T1, Heat shock protein HSP 90-alpha (Homo sapiens, UniProt P07900). Kind of assay: Displacement of fluorescent labelled-VER00051001 from N-terminal ATP-binding site of human recombinant HSP90A expressed in Escherichia coli measured after 32 hrs by fluorescence polarization assay.
Conditions: not given
A general note: Fluorescence polarisation rises when a labelled molecule tumbles more slowly, as on binding a larger partner.
For the molecule `COc1ccc([C@H]2c3cccc(c3O)NC(=O)/C(C)=C/C=C\[C@H](OC)[C@@H](OC(N)=O)/C(C)=C/[C@H](C)[C@@H](O)[C@@H](OC)C[C@@H]2C)cc1`, the IC50 was determined as 55.8 nM.

In the case of `COc1ccc([C@H]2c3cccc(c3O)NC(=O)/C(C)=C/C=C\[C@H](OC)[C@@H](OC(N)=O)/C(C)=C/[C@H](C)[C@@H](OC)[C@@H](OC)C[C@@H]2C)cc1`, the 50% inhibitory concentration (IC50) stood at 101 nM.

The target in a further assay is T1, Heat shock protein HSP 90-alpha. Nature of the assay: Displacement of fluorescent labelled-VER00051001 from N-terminal ATP-binding site of human recombinant HSP90A expressed in Escherichia coli measured after 20 hrs by fluorescence polarization assay.
Conditions: not given
In the case of `COc1ccc([C@H]2c3cccc(c3O)NC(=O)/C(C)=C/C=C\[C@H](OC)[C@@H](OC(N)=O)/C(C)=C/[C@H](C)[C@@H](O)[C@@H](OC)C[C@@H]2C)cc1`, the half-inhibitory concentration (IC50) amounted to 64.5 nM.

As to `COc1ccc([C@H]2c3cccc(c3O)NC(=O)/C(C)=C/C=C\[C@H](OC)[C@@H](OC(N)=O)/C(C)=C/[C@H](C)[C@@H](OC)[C@@H](OC)C[C@@H]2C)cc1`, the IC50 came out at 119 nM.

The test system of a further assay is MCF7. Nature of the assay: Antiproliferative activity against human MCF7 assessed as reduction in cell viability measured after 96 hrs by MTT assay. The assay is classed as functional, cell-based. Particulars: MCF7, 96 h. (Tetrazolium assays rely on reduction of a dye to a coloured formazan, in cell work by metabolically active cells.)
With `COc1ccc([C@H]2c3cccc(c3O)NC(=O)/C(C)=C/C=C\[C@H](OC)[C@@H](OC(N)=O)/C(C)=C/[C@H](C)[C@@H](O)[C@@H](OC)C[C@@H]2C)cc1`, the IC50 is 450 nM.

Take `COc1ccc([C@H]2c3cccc(c3O)NC(=O)/C(C)=C/C=C\[C@H](OC)[C@@H](OC(N)=O)/C(C)=C/[C@H](C)[C@@H](OC)[C@@H](OC)C[C@@H]2C)cc1`: the IC50 turned out to be 9580 nM.

A further assay has as its system A-375. Nature of the assay: Antiproliferative activity against human A375 assessed as reduction in cell viability measured after 96 hrs by MTT assay. Particulars: A-375, 96 h. The assay is classed as functional, cell-based.
Turning to `COc1ccc([C@H]2c3cccc(c3O)NC(=O)/C(C)=C/C=C\[C@H](OC)[C@@H](OC(N)=O)/C(C)=C/[C@H](C)[C@@H](O)[C@@H](OC)C[C@@H]2C)cc1`, the 50% inhibitory concentration (IC50) turned out to be 450 nM.

Consider `COc1ccc([C@H]2c3cccc(c3O)NC(=O)/C(C)=C/C=C\[C@H](OC)[C@@H](OC(N)=O)/C(C)=C/[C@H](C)[C@@H](OC)[C@@H](OC)C[C@@H]2C)cc1`, for which the 50% inhibitory concentration (IC50) is 2560 nM.

For another assay, the system named is HCT-116. Nature of the assay: Antiproliferative activity against human HCT116 assessed as reduction in cell viability measured after 96 hrs by MTT assay. The assay is classed as functional, cell-based. As to conditions: HCT-116, 96 h.
As to `COc1ccc([C@H]2c3cccc(c3O)NC(=O)/C(C)=C/C=C\[C@H](OC)[C@@H](OC(N)=O)/C(C)=C/[C@H](C)[C@@H](O)[C@@H](OC)C[C@@H]2C)cc1`, the 50% inhibitory concentration (IC50) is 440 nM.

Consider `COc1ccc([C@H]2c3cccc(c3O)NC(=O)/C(C)=C/C=C\[C@H](OC)[C@@H](OC(N)=O)/C(C)=C/[C@H](C)[C@@H](OC)[C@@H](OC)C[C@@H]2C)cc1`, for which the concentration for half-maximal inhibition (IC50) came to 6340 nM.

Another assay has as its target T1, Heat shock protein HSP 90-alpha. Nature of the assay: Displacement of fluorescent labelled-VER00051001 from N-terminal ATP-binding site of human recombinant HSP90A expressed in Escherichia coli measured after 48 hrs by fluorescence polarization assay.
Conditions: not given
For `COc1ccc([C@H]2c3cccc(c3O)NC(=O)/C(C)=C/C=C\[C@H](OC)[C@@H](OC(N)=O)/C(C)=C/[C@H](C)[C@@H](O)[C@@H](OC)C[C@@H]2C)cc1`, the half-maximal inhibitory concentration (IC50) stood at 53 nM.

Consider `COc1ccc([C@H]2c3cccc(c3O)NC(=O)/C(C)=C/C=C\[C@H](OC)[C@@H](OC(N)=O)/C(C)=C/[C@H](C)[C@@H](OC)[C@@H](OC)C[C@@H]2C)cc1`, for which the IC50 is 97.1 nM.

A further assay shares this target. Nature of the assay: Displacement of fluorescent labelled-VER00051001 from N-terminal ATP-binding site of human recombinant HSP90A expressed in Escherichia coli measured after 44 hrs by fluorescence polarization assay.
Conditions: not given
`COc1ccc([C@H]2c3cccc(c3O)NC(=O)/C(C)=C/C=C\[C@H](OC)[C@@H](OC(N)=O)/C(C)=C/[C@H](C)[C@@H](O)[C@@H](OC)C[C@@H]2C)cc1`: the 50% inhibitory concentration (IC50) worked out at 56.7 nM.

For `COc1ccc([C@H]2c3cccc(c3O)NC(=O)/C(C)=C/C=C\[C@H](OC)[C@@H](OC(N)=O)/C(C)=C/[C@H](C)[C@@H](OC)[C@@H](OC)C[C@@H]2C)cc1`, the IC50 was found to be 98.5 nM.

Another assay has the same target. Kind of assay: Displacement of fluorescent labelled-VER00051001 from N-terminal ATP-binding site of human recombinant HSP90A expressed in Escherichia coli measured after 29 hrs by fluorescence polarization assay.
Conditions: not given
For the molecule `COc1ccc([C@H]2c3cccc(c3O)NC(=O)/C(C)=C/C=C\[C@H](OC)[C@@H](OC(N)=O)/C(C)=C/[C@H](C)[C@@H](O)[C@@H](OC)C[C@@H]2C)cc1`, the IC50 worked out at 59.4 nM.

In the case of `COc1ccc([C@H]2c3cccc(c3O)NC(=O)/C(C)=C/C=C\[C@H](OC)[C@@H](OC(N)=O)/C(C)=C/[C@H](C)[C@@H](OC)[C@@H](OC)C[C@@H]2C)cc1`, the IC50 amounted to 102 nM.

Usually IC50 stands for the concentration that gives 50% inhibition.
